Source: the supplement of paper PMC10307832

Experiments:
Assay in all cases: relative viability (nuclei count vs DMSO), 5 days (fraction); higher = more cells survive
[1] = compound: CC1=CC(=NN1)NC2=CC(=NC(=N2)/C=C/C3=CC=CC=C3)N4CCN(CC4)C + CC(C)C[C@H](NC(=O)[C@H](Cc1ccccc1)NC(=O)c1cnccn1)B(O)O [Bortezomib] (partner 0.002 µM)
How it was run: (§1)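 A single step with final 0.05% Triton X-100, 1% formaldehyde and 1 ug/ml Hoechst fixed the cells and stained nuclei 5 days after treatment. Lung cancer cell lines in 1536-well plates had been treated by pin tool the day after seeding with one drug alone or a fixed anchor-drug dose plus five library-drug doses (not always all listed) in √10 steps, and nuclei were counted on 4× images. Relative viability is the ratio of nuclei in treated wells to nuclei in vehicle wells, taken as the median of duplicate plates.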

[2] = compound: CC1=CC(=NN1)NC2=CC(=NC(=N2)/C=C/C3=CC=CC=C3)N4CCN(CC4)C + COc1cccc2cc(-c3nc([C@H]4CC[C@H](C(=O)O)CC4)n4ncnc(N)c34)[nH]c12 [OSI-027] (partner 0.5 µM)
How it was run: as §1

Bortezomib + Pemetrexed = compound: CC(C)C[C@H](NC(=O)[C@H](Cc1ccccc1)NC(=O)c1cnccn1)B(O)O [Bortezomib] + Nc1nc2[nH]cc(CCc3ccc(C(=O)N[C@@H](CCC(=O)O)C(=O)O)cc3)c2c(=O)[nH]1 [Pemetrexed] (partner 0.2 µM)
How it was run: as §1

Bortezomib + Foretinib = compound: CC(C)C[C@H](NC(=O)[C@H](Cc1ccccc1)NC(=O)c1cnccn1)B(O)O [Bortezomib] + COc1cc2c(Oc3ccc(NC(=O)C4(C(=O)Nc5ccc(F)cc5)CC4)cc3F)ccnc2cc1OCCCN1CCOCC1 [Foretinib] (partner 0.25 µM)
How it was run: as §1

Cell Line | relative viability ([1]; first compound 0.08 µM) | relative viability ([1]; first compound 0.253 µM) | relative viability ([1]; first compound 0.8 µM) | relative viability ([1]; first compound 2.53 µM) | relative viability ([1]; first compound 8 µM) | relative viability ([2]; first compound 0.08 µM) | relative viability ([2]; first compound 0.253 µM) | relative viability ([2]; first compound 0.8 µM) | relative viability ([2]; first compound 2.53 µM) | relative viability ([2]; first compound 8 µM) | relative viability (Bortezomib + Pemetrexed; first compound 0.0002 µM) | relative viability (Bortezomib + Pemetrexed; first compound 0.000632 µM) | relative viability (Bortezomib + Pemetrexed; first compound 0.002 µM) | relative viability (Bortezomib + Pemetrexed; first compound 0.006325 µM) | relative viability (Bortezomib + Pemetrexed; first compound 0.02 µM) | relative viability (Bortezomib + Foretinib; first compound 0.0002 µM) | relative viability (Bortezomib + Foretinib; first compound 0.000632 µM) | relative viability (Bortezomib + Foretinib; first compound 0.002 µM) | relative viability (Bortezomib + Foretinib; first compound 0.006325 µM) | relative viability (Bortezomib + Foretinib; first compound 0.02 µM)
LCLC-103H | 0.997 | 1.19 | 1.08 | 0.877 | 0.675 | 0.504 | 0.486 | 0.463 | 0.378 | 0.332 | 0.46 | 0.483 | 0.47 | 0.559 | 0.317 | 0.679 | 0.698 | 0.268 | 0.162 | 0.13
EKVX | 0.987 | 1.33 | 1.2 | 0.824 | 0.141 | 0.699 | 0.845 | 0.664 | 0.611 | 0.3 | 0.373 | 0.417 | 0.482 | 0.216 | 0.102 | 0.847 | 0.843 | 0.897 | 0.872 | 0.21
NCI-H460 | 1.07 | 1.1 | 1 | 0.0197 | 0.0105 | 0.696 | 0.606 | 0.578 | 0.0297 | 0.0153 | 0.0729 | 0.0627 | 0.0658 | 0.0625 | 0.0303 | 0.983 | 1.03 | 1.13 | 0.115 | 0.0294
NCI-H838 | 0.759 | 0.802 | 0.705 | 0.168 | 0.0832 | 0.346 | 0.413 | 0.385 | 0.208 | 0.103 | 0.252 | 0.231 | 0.264 | 0.161 | 0.161 | 1 | 1 | 1.17 | 0.165 | 0.13
H3255 | 0.878 | 0.854 | 0.895 | 0.745 | 0.198 | 0.582 | 0.541 | 0.579 | 0.589 | 0.382 | 0.6 | 0.603 | 0.479 | 0.378 | 0.344 | 0.763 | 0.994 | 0.935 | 0.638 | 0.283
EPLC-272H | 0.952 | 0.914 | 0.956 | 0.531 | 0.279 | 0.305 | 0.277 | 0.231 | 0.202 | 0.171 | 0.354 | 0.308 | 0.157 | 0.085 | 0.0797 | 0.7 | 0.506 | 0.148 | 0.0867 | 0.0676
NCI-H647 | 0.807 | 1.1 | 0.957 | 0.068 | 0.0571 | 0.706 | 0.628 | 0.668 | 0.13 | 0.0671 | 0.17 | 0.199 | 0.134 | 0.0326 | 0.0194 | 0.904 | 1.3 | 1.25 | 0.0379 | 0.0377
LXF-289 | 0.992 | 0.98 | 0.917 | 0.656 | 0.115 | 0.826 | 0.834 | 0.673 | 0.42 | 0.0972 | 0.884 | 0.884 | 0.962 | 0.442 | 0.0884 | 0.98 | 0.964 | 0.991 | 0.127 | 0.0671
NCI-H1650 | 0.209 | 0.191 | 0.182 | 0.183 | 0.19 | 0.645 | 0.782 | 0.624 | 0.154 | 0.0984 | 0.403 | 0.335 | 0.141 | 0.13 | 0.186 | 1.19 | 1.15 | 0.223 | 0.16 | 0.164
NCI-H1755 | 0.913 | 1.01 | 0.956 | 0.63 | 0.195 | 0.724 | 0.715 | 0.648 | 0.363 | 0.209 | 0.404 | 0.495 | 0.472 | 0.286 | 0.239 | 0.939 | 0.972 | 0.868 | 0.494 | 0.192
HCC-15 | 0.981 | 0.961 | 1 | 0.377 | 0.235 | 0.665 | 0.642 | 0.549 | 0.158 | 0.0878 | 0.213 | 0.199 | 0.215 | 0.13 | 0.1 | 0.933 | 1.09 | 0.628 | 0.0908 | 0.0905
EMC-BAC-2 | 1.05 | 1.1 | 1.01 | 0.813 | 0.135 | 0.364 | 0.426 | 0.32 | 0.226 | 0.097 | 0.415 | 0.44 | 0.443 | 0.326 | 0.266 | 0.993 | 1.03 | 1.13 | 0.279 | 0.203
NCI-H1734 | 0.814 | 0.999 | 0.731 | 0.234 | 0.13 | 0.637 | 0.527 | 0.475 | 0.234 | 0.139 | 0.419 | 0.407 | 0.451 | 0.178 | 0.114 | 0.786 | 0.9 | 0.759 | 0.176 | 0.109
HOP-62 | 0.9 | 0.549 | 1.07 | 0.403 | 0.107 | 0.875 | 0.865 | 0.861 | 0.52 | 0.38 | 0.257 | 0.321 | 0.445 | 0.223 | 0.0603 | 0.972 | 1.07 | 0.863 | 0.134 | 0.0751
SW 1573 | 1.13 | 1.02 | 1.02 | 0.348 | 0.1 | 0.549 | 0.511 | 0.569 | 0.0922 | 0.0676 | 0.844 | 0.993 | 0.76 | 0.0663 | 0.0512 | 0.943 | 0.907 | 1.02 | 0.327 | 0.0926
SK-LU-1 | 1.1 | 1.28 | 1.01 | 0.429 | 0.195 | 0.367 | 0.299 | 0.376 | 0.119 | 0.0636 | 0.911 | 0.984 | 0.704 | 0.188 | 0.161 | 0.742 | 0.86 | 0.67 | 0.128 | 0.112
